Experimental data published in ChEMBL document CHEMBL1153387 (J Med Chem, 2009).
Activity calls are given as the source filed them. The rule behind the calls is not given here. Non-standard residues stand in square brackets, D forms with d. Residues, ends and D or L forms follow the SMILES beside them. *: point of attachment. X2 = [N-]=[N+]=N[C@@H](CCCCN)CC(=O)*; Tle = CC(C)(C)[C@H](N)C(=O)O; X3 = C[C@](N)(CCCCN)CC(=O)*

Assays:
Rattus norvegicus [1] = experiment: Hypothermic activity in Sprague-Dawley rat assessed as decrease in core body temperature at 5 mg/kg, ip at time of maximal body temperature decrease; format: functional; conditions: route intraperitoneal
Rattus norvegicus [2] = experiment: Hypothermic activity in Sprague-Dawley rat assessed as decrease in core body temperature at 5 mg/kg, ip measured up to 150 mins; format: functional, organism-based; set-up: dose 5 mg/kg
Rattus norvegicus [3] = experiment: Hypothermic activity in Sprague-Dawley rat assessed as time duration of maximal body temperature decrease at 5 mg/kg, ip; format: functional; conditions: route intraperitoneal
[4] = Metabolic stability in rat serum assessed as half time of disappearance at 1 mM by MALDI-TOF mass spectrometry assay; format: ADME, cell-free; conditions: read-out: T50
[5] = Metabolic stability in human serum assessed as half time of disappearance at 1 mM by MALDI-TOF mass spectrometry assay; format: ADME, cell-free; conditions: read-out: T50
[6] = target: T1, Neurotensin receptor type 1 (Homo sapiens, UniProt P30989); experiment: Binding affinity to human NTR1
T1 sequence (P30989 whole entry): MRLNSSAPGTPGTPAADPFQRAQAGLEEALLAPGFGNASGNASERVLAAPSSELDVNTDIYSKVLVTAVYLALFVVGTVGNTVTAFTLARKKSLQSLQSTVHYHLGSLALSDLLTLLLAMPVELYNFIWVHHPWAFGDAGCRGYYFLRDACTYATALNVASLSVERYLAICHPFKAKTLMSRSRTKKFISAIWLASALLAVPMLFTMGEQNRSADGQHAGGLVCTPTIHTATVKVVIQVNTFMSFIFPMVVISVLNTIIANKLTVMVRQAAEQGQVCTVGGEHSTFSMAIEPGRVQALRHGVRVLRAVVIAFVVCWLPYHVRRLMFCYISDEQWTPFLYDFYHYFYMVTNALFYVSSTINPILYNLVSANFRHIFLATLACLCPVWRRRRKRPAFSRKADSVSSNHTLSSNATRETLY

[7] = target: T1, Neurotensin receptor type 1; experiment: Agonist activity at NTR1 in human HT-29 cells assessed as increase in intracellular calcium concentration by FLIPR assay; format: functional, cell-based
Serum [8] = experiment: Metabolic stability in rat serum assessed as compound degradation rate at 1 mM by MALDI-TOF mass spectrometry assay; format: ADME, cell-free; conditions: 1000 µM
[9] = target: T1, Neurotensin receptor type 1; experiment: Displacement of [125I]I-Tyr(3)NT from human NTR1
Serum [10] = experiment: Metabolic stability in human serum assessed as compound degradation rate at 1 mM by MALDI-TOF mass spectrometry assay; format: ADME, cell-free; conditions: 1000 µM

Row | half-life at 1000 µM [4] [h] | half-life at 1000 µM [5] [h] | Ki [6] [nM] | EC50 [7] [nM] | Activity (Serum [8]) [µmol/min] | IC50 [9] [nM] | Ki [9] [nM] | Activity (Serum [10]) [µmol/min] | Compound | Activity (Rattus norvegicus [1]) [°C] | Activity (Rattus norvegicus [2]) | Time (Rattus norvegicus [3]) [min]
1 |  |  |  |  |  |  |  |  | O=C(CCCN1CCC(O)(c2ccc(Cl)cc2)CC1)c1ccc(F)cc1 [HALOPERIDOL] | -1.34 | Active | 90
2 | 49.7 | 42.8 | 9.9 | 6.44 | 0.166 | 13.9 | 10.4 | 0.194 | CC(C)C[C@H](NC(=O)[C@@H](NC(=O)[C@H](Cc1ccc(O)cc1)NC(=O)[C@@H]1CCCN1C(=O)[C@H](CCCNC(=N)N)NC(=O)C[C@@](C)(N)CCCCN)C(C)(C)C)C(=O)O (X3-RPY[Tle]L-OH) | -2.13 |  | 150
3 | 52 | 62.7 | 4.5 | 7.28 | 0.16 | 7.32 | 5.49 | 0.133 | CC(C)C[C@H](NC(=O)[C@@H](NC(=O)[C@H](Cc1ccc(O)cc1)NC(=O)[C@@H]1CCCN1C(=O)[C@H](CCCNC(=N)N)NC(=O)C[C@H](CCCCN)N=[N+]=[N-])C(C)(C)C)C(=O)O (X2-RPY[Tle]L-OH) | -2.57 |  | 120
